Data published in patent US20050197350A1, “Novel quinoline, tetrahydroquinazoline, and pyrimidine derivatives and methods of treatment related to the use thereof” (TAISHO PHARMACEUTICAL CO., LTD., priority 2003, published 2005).

These compounds were tested on MCH receptors (assay: MCH receptor activity class (method not given)). Conditions: not given.

Row | class | SMILES
1 | 1 | Cc1cccc(CNC(=O)[C@H]2CC[C@@H](Nc3nc(C)cc(N(C)C)n3)CC2)c1 [Example 2586, cis-4-{[4-(dimethylamino)-6-methylpyrimidin-2-yl]amino}-N-(3-methylbenzyl)cyclohexanecarboxamide]

Same assay, conditions: MCH receptor activity class 1-3 (percent of control at 10^-7 M or IC50)

Row | SMILES | class
2 | CN(C)c1ccnc(N[C@H]2CC[C@@H](NC(=S)Nc3ccc4c(c3)OCO4)CC2)n1 [compound 2350] | 3 (Class 3 The value of percent of control at 10^−7 M was more than 60% or the value of IC50 was more than 200 nM.)
3 | CN(C)c1ccnc(N[C@H]2CC[C@@H](NC(=S)Nc3ccccc3-c3ccccc3)CC2)n1 [compound 2335] | 3 (Class 3 The value of percent of control at 10^−7 M was more than 60% or the value of IC50 was more than 200 nM.)
4 | CN(C)c1ccnc(N[C@H]2CC[C@@H](NC(=S)Nc3ccc(I)cc3)CC2)n1 [compound 2317] | 3 (Class 3 The value of percent of control at 10^−7 M was more than 60% or the value of IC50 was more than 200 nM.)
5 | COc1cc(OC)c(NC(=S)N[C@H]2CC[C@@H](Nc3cc(N(C)C)c4ccccc4n3)CC2)cc1Cl [compound 2297, N-(5-chloro-2,4-dimethoxyphenyl)-N′-(cis-4-{[4-(dimethylamino)quinolin-2-yl]amino}cyclohexyl)thiourea] | 1 (Class 1: The value of percent of control at 10^−7 M was less than 40% or the value of IC50 was less than 50 nM.)
6 | CCc1ccccc1NC(=O)NC[C@H]1CC[C@@H](Nc2nccc(N(C)C)n2)CC1 [compound 2423] | 3 (Class 3 The value of percent of control at 10^−7 M was more than 60% or the value of IC50 was more than 200 nM.)

Same assay, conditions: MCH receptor; class by percent of control at 10^-7 M or IC50

Row | SMILES | class
7 | CN(C)c1nc(N[C@H]2CC[C@@H](NC(=O)Nc3ccc4c(c3)Cc3ccccc3-4)CC2)nc2c1CCCC2 [compound 1904] | 3 (Class 3 The value of percent of control at 10^−7 M was more than 60% or the value of IC50 was more than 200 nM.)
8 | CSc1ccc(NC(=S)N[C@H]2CC[C@@H](Nc3nc4c(c(N(C)C)n3)CCCC4)CC2)cc1 [compound 1948] | 3 (Class 3 The value of percent of control at 10^−7 M was more than 60% or the value of IC50 was more than 200 nM.)
9 | CN(C)c1nc(N[C@H]2CC[C@@H](NC(=S)Nc3ccc(S(=O)(=O)N4CCCCC4)cc3)CC2)nc2c1CCCC2 [compound 2057] | 3 (Class 3 The value of percent of control at 10^−7 M was more than 60% or the value of IC50 was more than 200 nM.)
10 | CN(C)c1cc(N[C@H]2CC[C@@H](CNC(=O)c3ccc(F)cc3)CC2)nc2ccccc12 [compound 164, N-[(cis-4-{[4-(dimethylamino)quinolin-2-yl]amino}cyclohexyl)methyl]-4-fluorobenzamide] | 3 (Class 3 The value of percent of control at 10^−7 M was more than 60% or the value of IC50 was more than 200 nM.)

Same assay, conditions: activity class 1-3: percent of control at 10^-7 M or IC50

Row | SMILES | class
11 | COC(=O)[C@H](CCSC)NC(=O)N[C@H]1CC[C@@H](Nc2nc3c(c(N(C)C)n2)CCCC3)CC1 (relative stereo) [compound 1699] | 3 (Class 3 The value of percent of control at 10^−7 M was more than 60% or the value of IC50 was more than 200 nM.)
12 | CCOC(=O)N[C@H]1CC[C@@H](Nc2nccc(N(C)C)n2)CC1 [compound 1627] | 3 (Class 3 The value of percent of control at 10^−7 M was more than 60% or the value of IC50 was more than 200 nM.)

Same assay, conditions: activity class per percent of control at 10^-7 M or IC50

Row | SMILES | class
13 | CN(C)c1nc(N[C@H]2CC[C@@H](NC(=O)Cc3cccc(Oc4ccccc4)c3)CC2)nc2c1CCCC2 [compound 1003] | 2 (Class 2: The value of percent of control at 10^−7 M was from 40% to 60% or the value of IC′50 was from 50 nM to 200 nM.)
14 | CN(C)c1nc(N[C@H]2CC[C@@H](CNC(=O)C(c3ccc(Cl)cc3)c3ccc(Cl)cc3)CC2)nc2c1CCCC2 [compound 1073] | 3 (Class 3 The value of percent of control at 10^−7 M was more than 60% or the value of IC50 was more than 200 nM.)
15 | CN(C)c1nc(N[C@H]2CC[C@@H](NC(=O)C(CC(=O)c3ccccc3)c3c[nH]c4ccccc34)CC2)nc2c1CCCC2 (relative stereo) [compound 991] | 2 (Class 2: The value of percent of control at 10^−7 M was from 40% to 60% or the value of IC′50 was from 50 nM to 200 nM.)
16 | COc1ccc(CNC[C@H]2CC[C@@H](Nc3cc(N(C)C)c4ccccc4n3)CC2)c2ccccc12 [compound 1126] | 2 (Class 2: The value of percent of control at 10^−7 M was from 40% to 60% or the value of IC′50 was from 50 nM to 200 nM.)
17 | CN(C)c1nc(N[C@H]2CC[C@@H](CNC(=O)Cc3ccccc3OC(F)(F)F)CC2)nc2c1CCCC2 [compound 1081] | 3 (Class 3 The value of percent of control at 10^−7 M was more than 60% or the value of IC50 was more than 200 nM.)

Same assay, conditions: class 1-3 by percent of control at 10^-7 M or IC50

Row | SMILES | class
18 | CC(C)S(=O)(=O)c1csc(C(=O)N[C@H]2CC[C@@H](Nc3nc4c(c(N(C)C)n3)CCCC4)CC2)c1Cl [compound 537] | 3 (Class 3 The value of percent of control at 10^−7 M was more than 60% or the value of IC50 was more than 200 nM.)

Same assay, conditions: class by percent of control at 10^-7 M or IC50

Row | SMILES | class
19 | CN(C)c1nc(N[C@H]2CC[C@@H](NC(=S)NCc3cccc4ccccc34)CC2)nc2c1CCCC2 [compound 1767] | 3 (Class 3 The value of percent of control at 10^−7 M was more than 60% or the value of IC50 was more than 200 nM.)
20 | CN(C)c1ccnc(N[C@H]2CC[C@@H](NC(=O)c3ccc(F)c(F)c3)CC2)n1 [compound 251, N-(cis-4-{[4-(dimethylamino)pyrimidin-2-yl]amino}cyclohexyl)-3,4-difluorobenzamide] | 1 (Class 1: The value of percent of control at 10^−7 M was less than 40% or the value of IC50 was less than 50 nM.)
21 | CN(C)c1cc(N[C@H]2CC[C@@H](CNCc3cc(Cl)ccc3Cl)CC2)nc2ccccc12 [compound 1473] | 3 (Class 3 The value of percent of control at 10^−7 M was more than 60% or the value of IC50 was more than 200 nM.)
22 | CN(C)c1nc(N[C@H]2CC[C@@H](NC(=O)Nc3cccc(F)c3)CC2)nc2c1CCCC2 [compound 1827] | 3 (Class 3 The value of percent of control at 10^−7 M was more than 60% or the value of IC50 was more than 200 nM.)
23 | CN(C)c1cc(N[C@H]2CC[C@@H](NC(=O)Nc3ccc(Cl)cc3C(F)(F)F)CC2)nc2ccccc12 [compound 2117] | 3 (Class 3 The value of percent of control at 10^−7 M was more than 60% or the value of IC50 was more than 200 nM.)
24 | Cc1ccc(NC(=O)N[C@H]2CC[C@@H](Nc3nc4c(c(N(C)C)n3)CCCC4)CC2)c(C)c1 [compound 1847] | 3 (Class 3 The value of percent of control at 10^−7 M was more than 60% or the value of IC50 was more than 200 nM.)
25 | CN(C)c1ccnc(N[C@H]2CC[C@@H](NC(=O)COc3ccccc3[N+](=O)[O-])CC2)n1 [compound 331] | 3 (Class 3 The value of percent of control at 10^−7 M was more than 60% or the value of IC50 was more than 200 nM.)
26 | Cc1onc(-c2ccccc2)c1NC(=O)N[C@H]1CC[C@@H](Nc2nc3c(c(N(C)C)n2)CCCC3)CC1 [compound 1736] | 1 (Class 1: The value of percent of control at 10^−7 M was less than 40% or the value of IC50 was less than 50 nM.)
27 | CN(C)c1nc(N[C@H]2CC[C@@H](CNC(=O)c3c(F)ccc(F)c3F)CC2)nc2c1CCCC2 [compound 662] | 3 (Class 3 The value of percent of control at 10^−7 M was more than 60% or the value of IC50 was more than 200 nM.)
28 | Cc1cc(C(=O)N[C@H]2CC[C@@H](Nc3cc(N(C)C)c4ccccc4n3)CC2)ccc1[N+](=O)[O-] [compound 689, N-(cis-4-{[4-(dimethylamino)quinolin-2-yl]amino}cyclohexyl)-3-methyl-4-nitrobenzamide] | 1 (Class 1: The value of percent of control at 10^−7 M was less than 40% or the value of IC50 was less than 50 nM.)
29 | CN(C)c1ccnc(N[C@H]2CC[C@@H](CNCc3c[nH]c4ccccc34)CC2)n1 [compound 1245] | 3 (Class 3 The value of percent of control at 10^−7 M was more than 60% or the value of IC50 was more than 200 nM.)
30 | CN(C)c1nc(N[C@H]2CC[C@@H](NC(=O)Nc3ccc(Cl)c(C(F)(F)F)c3)CC2)nc2c1CCCC2 [compound 1887, N-4[4-chloro-3-(trifluoromethyl)phenyl]-N′-(cis-4-{[4-(dimethylamino)-5,6,7,8-tetrahydroquinazolin-2-yl]amino}cyclohexyl)urea] | 3 (Class 3 The value of percent of control at 10^−7 M was more than 60% or the value of IC50 was more than 200 nM.)
31 | CN(C)c1ccnc(N[C@H]2CC[C@@H](NC(=O)Nc3ccc(Cl)cc3C(F)(F)F)CC2)n1 [compound 2207] | 3 (Class 3 The value of percent of control at 10^−7 M was more than 60% or the value of IC50 was more than 200 nM.)
32 | CCc1cccc(C(C)C)c1NC(=S)N[C@H]1CC[C@@H](Nc2cc(N(C)C)c3ccccc3n2)CC1 [compound 2172] | 3 (Class 3 The value of percent of control at 10^−7 M was more than 60% or the value of IC50 was more than 200 nM.)
33 | CN(C)c1cc(N[C@H]2CC[C@@H](CNCCCCCCc3ccccc3)CC2)nc2ccccc12 [compound 1465] | 3 (Class 3 The value of percent of control at 10^−7 M was more than 60% or the value of IC50 was more than 200 nM.)
34 | CN(C)c1ccnc(N[C@H]2CC[C@@H](NC(=O)[C@H](CCCCNC(=O)c3ccccc3)NC(=O)c3ccccc3)CC2)n1 (relative stereo) [compound 843] | 2 (Class 2: The value of percent of control at 10^−7 M was from 40% to 60% or the value of IC′50 was from 50 nM to 200 nM.)
35 | CC(=O)c1ccc(NC(=O)N[C@H]2CC[C@@H](Nc3nc4c(c(N(C)C)n3)CCCC4)CC2)cc1 [compound 1808] | 3 (Class 3 The value of percent of control at 10^−7 M was more than 60% or the value of IC50 was more than 200 nM.)
36 | CCc1ccc(CNC[C@H]2CC[C@@H](Nc3nc4c(c(N(C)C)n3)CCCC4)CC2)s1 [compound 1399] | 3 (Class 3 The value of percent of control at 10^−7 M was more than 60% or the value of IC50 was more than 200 nM.)
37 | CN(C)c1ccnc(N[C@H]2CC[C@@H](NC(=O)Nc3ccc4c(c3)OCCCO4)CC2)n1 [compound 2254] | 3 (Class 3 The value of percent of control at 10^−7 M was more than 60% or the value of IC50 was more than 200 nM.)

Same assay, conditions: class by percent of control at 10^−7 M or IC50

Row | SMILES | class
38 | Cc1cc(N(C)C)nc(N[C@H]2CC[C@@H](CNC(=O)c3ccc(F)c(Cl)c3)CC2)n1 [compound 2764] | 1 (Class 1: The value of percent of control at 10^−7 M was less than 40% or the value of IC50 was less than 50 nM.)
